We go through 2 compounds from patent publication US20080255090A1, “Ceratamines A and B, and Analogues, Syntheses and Pharmaceutical Compositions Thereof” (THE UNIVERSITY OF BRITISH COLUMBIA, priority 2003, published 2008).

The subject of this assay is mitotic arrest. Put plainly: cell-based ELICA assay that detects mitotic arrest (Roberge et al. 2000). The settings on record: cell-based ELICA assay of Roberge et al. (2000) Cancer Res. 60:5052. From the text: As part of a program to discover new antimitotic natural products, extracts of marine invertebrates are screened in a cell-based assay that detects mitotic arrest (Roberge, M. et al. (2000) Cancer Res. 60:5052). […] The compounds described below, their salts, prodrugs and pharmaceutical compositions thereof are all contemplated within the scope of this invention.
Methods suitable for assaying antimitotic activity of compounds of this invention or compounds used as precursors, may be based on any of a variety of known methodologies including microscopic examination of cells to determine if they are arrested in mitosis. Particularly useful methods employ antibodies specific for mitotic cells, such as the method described in the international patent application published under WO 99/15157 or the assays described in WO 01/38339 and in Roberge et al. (2000) Cancer Res. 60:5052. Assays will typically employ cells which regularly divide in culture (e.g. cancer cells). […]
Immunological methods useful for determination of mitotic cells in an assay include any method for determining antibody-antigen binding, including: immunocytochemistry (e.g. immunofluorescence), flow cytometry, immunoblotting, and ELISA, including those described in Vincent, I. et al. [supra]. High throughput testing of samples may be readily achieved by use of the ELISA or the ELICA assays described in WO 01/38339. […]

Values after ≈ are worked out from the molar mass of the structure shown.

For orientation: IC50 means the point on the concentration scale where inhibition reaches its midpoint. As to `CNc1nc2ccn(C)c(=O)c(Cc3cc(Br)c(OC)c(Br)c3)c-2n1` [Heterocycle 1, ceratamine A], the IC50 (read-out: IC50, antimitotic activity in the cell-based ELICA assay) turned out to be 10 µg/mL (≈ 21.4 µM).

As for ceratamine B [Heterocycle 2], the “IC50, antimitotic activity in the cell-based ELICA assay” value was 10 µg/mL.
